Here are results for nine molecules from ChEMBL document CHEMBL1201862, “PubChem BioAssay data set” (2004).

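In this assay, cells in 96-well plates receive the compound at five concentrations for 48 hours. Endpoints are linearly interpolated between the surrounding concentrations. The concentration for 50% growth inhibition is given as GI50.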 Calls of active or inactive are those of the source. Cut-off read from the data, not from the text of the source: active = GI50 up to about 1.1 µM and inactive = higher.

Common to all, as to assay: growth of human tumour cells (NCI), 48 h
Test [1] concerns CAKI-1.
Test [2] has as its system EKVX.
Test [3] has as its system HL-60.
For test [4], the system named is HOP-62.
Test [5] concerns HOP-92.
The test system of test [6] is LOX IMVI.
For test [7], the system named is M14.
Test [8] has as its system NCI-H23.
Test [9] has as its system NCI-H460.
In test [10] the test system is NCI-H522.
Test [11] deals with OVCAR-3.
In test [12] the test system is SF-295.
The test system of test [13] is SN12C.
The test system of test [14] is SNB-19.
The test system of test [15] is SW-620.
The test system of test [16] is U-251.
Test [17] deals with UACC-257.
Test [18] relates to SR.

As for `CCOC(=O)C12CCSC1C1(C#N)C(C#N)=CC2(N=P(c2ccccc2)(c2ccccc2)c2ccccc2)n2c(=O)n(-c3ccccc3)c(=O)n21` (stereo not drawn), the GI50 in test [1] was 28.6 µM (inactive); in test [2], 82.2 µM (inactive); in [3], 26.1 µM (inactive); in test [4], 46.2 µM (inactive); in test [5], 12.4 µM (inactive); in test [6], 39.9 µM (inactive). Besides, the GI50 is 42.2 µM (inactive) in test [7]; 49.7 µM (inactive) in test [8]; 37.7 µM (inactive) in [9]; 29.5 µM (inactive) in [10]; 25.4 µM (inactive) in [11]; 36.6 µM (inactive) in test [12]. Also, the GI50 is 62.2 µM (inactive) in test [13]; 39.3 µM (inactive) in test [14]; 64 µM (inactive) in [15]; 42.4 µM (inactive) in test [16]; 33.6 µM (inactive) in test [17].
For `Cc1nc(O)nc(CC(O)(c2ccccc2)c2ccccc2)c1-c1ccccc1`, the GI50 was > 100 µM (inactive) in test [1]; > 100 µM (inactive) in [2]; > 100 µM (inactive) in [3]; > 100 µM (inactive) in test [4]; 55.8 µM (inactive) in test [5]; > 100 µM (inactive) in test [6]. In addition, the GI50 was > 100 µM (inactive) in test [7]; > 100 µM (inactive) in test [8]; > 100 µM (inactive) in test [9]; 58.5 µM (inactive) in [10]; > 100 µM (inactive) in test [11]; > 100 µM (inactive) in test [12]. For the same molecule, the GI50 in test [13], in [14], in test [15], in test [16] and in [17] was > 100 µM (inactive) in each case.
`CNS(=O)(=O)NNS(=O)(=O)c1cccc([N+](=O)[O-])c1`: the GI50 in [1], in [2], in test [4], in [6], in test [7] and in test [8] was > 100 µM (inactive) each time. Moreover, the GI50 in test [9], in [10], in [11], in test [12], in test [13] and in test [14] was > 100 µM (inactive) in each case. The GI50 in test [18], in [15], in test [16] and in [17] was > 100 µM (inactive) throughout.
`Cc1nc(Nc2ccccc2)sc1C(=O)CC(=O)C(=O)NC12CC3CC(CC(C3)C1)C2`: the GI50 is 65.2 µM (inactive) in test [1]; 7.21 µM (inactive) in test [2]; 92.3 µM (inactive) in test [3]; 83.2 µM (inactive) in [4]; 23 µM (inactive) in test [5]; 50.4 µM (inactive) in test [6]. Further, the GI50 in test [7] is > 100 µM (inactive); in test [8], > 100 µM (inactive); in test [9], > 100 µM (inactive); in test [10], 79.6 µM (inactive); in [11], > 100 µM (inactive); in test [12] it was 71.3 µM (inactive). For the same molecule, the GI50 in test [13], in test [14], in test [15], in [16] and in test [17] was > 100 µM (inactive) throughout.
Consider `CCN(CCCl)CCCCCNc1c2ccccc2nc2ccc(OC)cc12`, for which the GI50 is 2.84 µM (inactive) in [1]; 3.79 µM (inactive) in test [2]; 0.0411 µM (active) in [3]; 2.14 µM (inactive) in test [4]; 0.436 µM (active) in test [5]; 0.178 µM (active) in test [6]. For the same molecule, the GI50 is 2.15 µM (inactive) in test [7]; 0.356 µM (active) in test [8]; 0.07 µM (active) in [9]; 0.628 µM (active) in test [10]; 1.83 µM (inactive) in test [11]; 1.47 µM (inactive) in test [12]. Further, the GI50 in test [13] is 0.232 µM (active); in [14] it was 1.16 µM (inactive); in test [15] it was 0.154 µM (active); in test [16] it was 0.603 µM (active); in test [17], 3.22 µM (inactive).
Turning to `OC1CC1Sc1ccccc1` (stereo not drawn), the GI50 in test [1] is 73.3 µM (inactive); in [2], 70.1 µM (inactive); in test [3], 14.2 µM (inactive); in [4], 43 µM (inactive); in test [5], 29.6 µM (inactive); in [6], 28 µM (inactive). In addition, the GI50 in [7] is 36.6 µM (inactive); in [8], 35.6 µM (inactive); in [9] it was 65.2 µM (inactive); in [10] it was 17.6 µM (inactive); in test [11], 25.4 µM (inactive); in test [12], 24.5 µM (inactive). The GI50 in [13] is 24 µM (inactive); in [14], 33.9 µM (inactive); in test [15], 25.8 µM (inactive); in [16] it was 31.6 µM (inactive); in test [17], 52.5 µM (inactive).
Consider `CCOC(=O)[C@H]1Nc2ccc(OC)cc2C2c3ccccc3CC21` (stereo partly drawn), for which the GI50 in [1], in [4], in test [6], in test [7], in [8] and in test [9] was > 100 µM (inactive) each time. In addition, the GI50 in test [10], in test [11], in test [12], in test [13], in [14] and in [18] was > 100 µM (inactive) each time. Also, the GI50 in test [15], in [16] and in test [17] was > 100 µM (inactive) throughout.
As for `CN(C)CCSc1nccc(-c2cc3ccccc3s2)n1`, the GI50 in [1] was 25.8 µM (inactive); in [4], 23.8 µM (inactive); in [5] it was 2.87 µM (inactive); in test [6] it was 17.1 µM (inactive); in [7], 15.6 µM (inactive); in test [8], > 10 µM (inactive). The GI50 in test [9] is 13.8 µM (inactive); in test [10], 20.1 µM (inactive); in test [11] it was 44.5 µM (inactive); in [12], 16.2 µM (inactive); in test [13], 30.4 µM (inactive); in test [18], 19.2 µM (inactive). Besides, the GI50 in [15] was 19 µM (inactive); in test [16] it was 20.2 µM (inactive); in test [17] it was > 10 µM (inactive).
As to `[N-]=[N+]=NC12CC3C4CC5CC3C(C1)C(C5)C4C2`, the GI50 in test [1], in test [2], in test [4], in test [5], in test [6] and in [7] was > 100 µM (inactive) throughout. Moreover, the GI50 in test [8], in [9], in [10], in test [11], in test [12] and in test [13] was > 100 µM (inactive) throughout. Besides, the GI50 in test [14], in test [18], in test [15], in [16] and in test [17] was > 100 µM (inactive) each time.
